According to ChEMBL document CHEMBL1148315, “Photoaffinity labeling of the anionic sites in Caco-2 cells mediating saturable transport of hydrophilic cations ranitidine and famotidine” (2004):

Assays:
Type in all cases: functional, Homo sapiens
Caco-2 [1] = test: Inhibition of irreversible increase in transepithelial electrical resistance across Caco-2 cell monolayer by the compound in the presence of 5 mM of famotidine
Caco-2 [2] = test: Inhibition of apical to basolateral transport of Ranitidine (100 uM) across Caco-2 cell monolayer in the presence of 300 uM of compound
Caco-2 [3] = test: Inhibition of Ranitidine transport across Caco-2 cell monolayer by the compound (200 uM) After photoactivation at 254 nM
Caco-2 [4] = test: Ability to increase the transepithelial electrical resistance across Caco-2 cell monolayer at 200 uM concentration

N=C(N)Nc1nc(CSCCC(=N)NS(N)(=O)=O)cs1.[N-]=[N+]=Nc1ccc(C(=O)NCCSCc2csc(NC(=N)N)n2)cc1
Inhibition (Caco-2 [1]): 35%

CNC(=C[N+](=O)[O-])NCCSCc1ccc(CN(C)C)o1.[N-]=[N+]=Nc1ccc(C(=O)NCCSCc2csc(NC(=N)N)n2)cc1
Inhibition (Caco-2 [2]): 40% | Inhibition (Caco-2 [3]): 35%

[N-]=[N+]=Nc1ccc(C(=O)NCCSCc2csc(NC(=N)N)n2)cc1
Increase (Caco-2 [4]): 120%
